Test results published in PMC2963310 (Science (New York, N.Y.), 2009).
Each block holds one compound with its values, some of them ahead of it.

Tests used:
LGC-40 [1] = biological target: T1, LGC-40 (Caenorhabditis elegans, UniProt Q22741); assay: Inhibition of choline-evoked LGC-40 currents in Xenopus oocytes; type: cell-based
T1 sequence (Q22741 23-494): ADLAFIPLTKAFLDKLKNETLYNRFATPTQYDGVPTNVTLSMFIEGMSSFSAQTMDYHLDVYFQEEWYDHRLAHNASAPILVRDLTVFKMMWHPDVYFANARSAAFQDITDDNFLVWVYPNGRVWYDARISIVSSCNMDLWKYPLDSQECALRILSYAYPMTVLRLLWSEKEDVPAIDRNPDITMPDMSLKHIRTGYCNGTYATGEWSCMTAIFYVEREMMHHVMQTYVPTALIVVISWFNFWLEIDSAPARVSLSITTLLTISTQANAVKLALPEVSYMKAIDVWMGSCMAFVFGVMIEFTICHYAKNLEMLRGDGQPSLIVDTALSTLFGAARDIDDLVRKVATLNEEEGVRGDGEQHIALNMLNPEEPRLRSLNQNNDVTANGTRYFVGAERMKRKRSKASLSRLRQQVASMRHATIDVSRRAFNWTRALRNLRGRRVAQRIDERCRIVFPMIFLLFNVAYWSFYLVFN

LGC-40 [2] = biological target: T1, LGC-40; type: cell-based; settings: for estimated Hill coefficient, LGC-40: dose-response data fitted to the Hill equation
LGC-53 [3] = biological target: T2, LGC-53 (Caenorhabditis elegans, UniProt H2KYN9)
LGC-53 [4] = biological target: T2, LGC-53; assay: cell-based
LGC-53 [5] = biological target: T2, LGC-53; assay: Inhibition of dopamine-evoked LGC-53 currents in Xenopus oocytes; type: cell-based
LGC-55 = LGC-55 (Caenorhabditis elegans, UniProt G5EEC1); type: cell-based
[6] = dose-response data fitted to the Hill equation
[7] = panel: serotonin, dopamine, octopamine, tyramine, histamine

SMILES: C[N+]1(C)CCOC(O)(c2ccc(-c3ccc(C4(O)C[N+](C)(C)CCO4)cc3)cc2)C1 (stereo not shown) [Hemicholinium-3, hemicholinium-3]
- IC50 (LGC-40 [1]): 2 µM

SMILES: CC(=O)OCC[N+](C)(C)C [acetylcholine]
- EC50 (LGC-40 [2]): 87 µM
- estimated Hill coefficient, LGC-40 (LGC-40 [2]): 1.5

SMILES: CN1[C@@H]2CC[C@H]1C[C@@H](OC(=O)C(CO)c1ccccc1)C2 (stereo partly shown) [atropine]
- sensitivity of LGC-40 currents to antagonist (in words) (LGC-40 [1]; currents evoked by 2 μM choline): relatively insensitive

- EC50 (LGC-40 [2]): 3.4 µM
- estimated Hill coefficient, LGC-40 (LGC-40 [2]): 1.9
SMILES: C[N+](C)(C)CCO [choline]

SMILES: COc1cc2c3cc1Oc1cc(ccc1O)C[C@@H]1c4c(cc(OC)c(O)c4Oc4ccc(cc4)C[C@@H]3N(C)CC2)CC[N+]1(C)C [d-tubocurarine]
- IC50 (LGC-40 [1]): 8.3 µM

SMILES: NCCc1ccc(O)c(O)c1 [dopamine]
- estimated Hill coefficient, LGC-53 (LGC-53 [3]; [6]): 1.9
- efficacy of activation of LGC-53 among the biogenic amines tested (in words) (LGC-53 [3]; [7]): highest efficacy
- EC50 (LGC-53 [4]): 4.4 µM

SMILES: NCCc1c[nH]c2ccc(O)cc12 [serotonin]
- EC50 (LGC-40 [2]): 905 µM
- estimated Hill coefficient, LGC-40 (LGC-40 [2]): 2.7

- IC50 (LGC-53 [5]): 38 µM
SMILES: O=C(CCCN1CCC2(CC1)C(=O)NCN2c1ccccc1)c1ccc(F)cc1 [spiperone]

- EC50 (LGC-55): 6 µM
- estimated Hill coefficient, LGC-55 (LGC-55; [6]): 1.8
- efficacy of activation of LGC-55 among the biogenic amines tested (in words) (LGC-55; [7]): highest efficacy
SMILES: NCCc1ccc(O)cc1 [tyramine]
